Source: patent US5520918A, “Low irritant skin-cosmetic composition for daily topical use, its application and manufacture” (Mary Kay Cosmetics, Inc., priority 1994, dated 1996)

Experiments:
hair-loss = assay: Hair-loss prevention efficacy of minoxidil combined with the two-component acid system (preliminary data); format: in vivo
skin pH = assay: Test I: duration of skin pH changes; format: in vivo, human (volunteer subjects); details: text to Test I
Procedure: Tests were performed on volunteer subjects using the procedures, conditions and ingredients substantially as described in connection with Test F above, while employing the proportion of active acidic ingredients indicated.

For `Nc1cc(N2CCCCC2)nc(N)[n+]1[O-]` [minoxidil], the “efficacy of minoxidil in combination (in words)” value (hair-loss) was “enhanced by combination with the inventive two-component acid system”.

With `O=C(O)C(O)C(O)C(=O)O` (stereo not drawn) [(+)tartaric acid] the “duration of impact on skin pH changes” value (skin pH) was 2 hours.

With `O=C(O)c1ccccc1O` [salicylic acid, 2-hydroxybenzoic acid] the “water solubility (in words)” value was “only moderately or sparingly water soluble” and the water solubility (text to Test I) was “less than 1 g. in 5 ml. of water”.
